Tests used:
[1] = molecular target: T1, recombinant alpha-synuclein (SYN) protein (Homo sapiens, UniProt P37840); assay: Precipitation of recombinant alpha-synuclein spiked into human plasma by agent I, protein gel and Western blotting; settings: 50 to 500 mg/ml agent I, 60 minutes at 37° C., Western blotting
T1 construct: purchased rPeptide
Method: After migration, two options are used: • The protein gel is stained with Coomassie Blue by adding gelcode blue stain reagent (Pierce) overnight at ambient temperature with shaking. […] 9.2 Detection in the Presence of the Agent I
The pellets are recovered and are separated from the supernatants. All the fractions are conserved. The pellets are taken up with 250 μl of SDS buffer. After denaturation, all the fractions are analyzed by the Western blotting technique.

[2] = molecular target: T2, beta-amyloid peptide 1-42 (Homo sapiens, UniProt P05067); assay: Circular dichroism of Aβ42 peptide with chondroitin-6-sulfate; type: binding
T2 construct: synthetic beta-amyloid peptide 42 amino acids in length (beta-A peptide 1-42)
Method: The beta-amyloid peptide to be analyzed as defined above, also called Aβ42, is extemporaneously dissolved at a stock concentration of 2.2×10^-4M in a solution of trifluoroethanol (TFE) at 20% in water in order to structure the β-amyloid peptides. The para-sulfonato-[…], prepared as described in Da Silva, E. et al., 2003, Tetrahedron, 59(37): 7357-7364, are dissolved at 100 μM in 50 mM phosphate buffer. The samples are prepared so as to be able to obtain a final concentration of 10 μM of beta-amyloid peptide in a phosphate buffer, i.e. for a final volume of 500 μL. The peptide concentration/calixarene concentration ratios can vary from 1/0 to 1/5. The samples are analyzed by circular dichroism between 180 and 260 nm. The protocol described in Example 5 above was repeated, with the exception that chondroitin-6-sulfate (Sigma) was used as agent II.

[3] = molecular target: T3, phosphorylated Tau protein (Homo sapiens, UniProt P10636); assay: Precipitation of phosphorylated Tau protein from brain extracts spiked into plasma by agent I, PhosphoTau ELISA of pellet and supernatant; settings: TET 100 mg/ml, 60 minutes at 37° C.
T3 construct: The assays are carried out with 25 ng of brain extracts; from tissue; host or cells: brain extracts from Alzheimer (AD+) and non-Alzheimer (AD-) patients, diluted in a pool of normal plasmas
Method: The PhosphoTau Elisa assay is based on the use of Dynex microplates to which are bound 3 μg/ml of goat anti-mouse Fc antibodies (Pierce) in a 25 mM KHPO4 buffer (pH 7.2) containing 140 mM NaCl, 1 mM EDTA and 2 mM NaN3, for three hours at 24° C. The wells are then passivated with a TBS (25 mM Tris-HCl, pH 7.5, 140 mM NaCl)-casein (1%) buffer for 1 h at 24° C., and then incubated for 2 h at 24° C. with 3 μg/ml of Tau1 (Chemicon) and CP27 (AppliedNeuroSolutions) antibodies diluted in TBS casein buffer.
Standards and brain extracts are diluted in a pool of normal plasmas for these assays and deposited at a rate of 80 μL per well in duplicate. […] 20 μl of this mixture are added to each well and incubated for 66 hours at 24° C. […] The biotinylated antibody is detected with 0.4 μg/ml of a streptavidin-peroxydase conjugate (Pierce) diluted in TBS-casein buffer and incubated for 45 minutes at 24° C. A Lumiglo reagent (Kirkegaard and Perry laboratories, US) is added to each well and the chemiluminescence is read in a luminometer (Berthold, Centro LB 960). […]
The samples are then centrifuged for 10 minutes at 13 000 rpm. […] The samples are then ready to be deposited on plates.
The samples are then centrifuged for 10 minutes at 13 000 rpm. […] The samples are then ready to be deposited onto plates.

[4] = molecular target: T2, beta-amyloid peptide 1-42; assay: Circular dichroism of Aβ42 peptide with para-sulfonato-calix[4]arene; type: binding; settings: in the presence of para-sulfonato-calix[4]arene, peptide/calixarene 1/1 to 1/5
Method: The analysis is carried out by circular dichroism.
The beta-amyloid peptide to be analyzed as defined above, also called Aβ42, is extemporaneously dissolved at a stock concentration of 2.2×10^−4M in a solution of trifluoroethanol (TFE) at 20% in water in order to structure the β-amyloid peptides. The para-sulfonato-calix[n]arenes, prepared as described in Da Silva, E. et al., 2003, Tetrahedron, 59(37): 7357-7364, are dissolved at 100 μM in 50 mM phosphate buffer. The samples are prepared so as to be able to obtain a final concentration of 10 μM of beta-amyloid peptide in a phosphate buffer, i.e. for a final volume of 500 μL. The peptide concentration/calixarene concentration ratios can vary from 1/0 to 1/5.
A β-amyloid control without para-sulfonato-calix[n]arene is carried out: 22.5 μL of Aβ42 stock solution at 2.2×10^−4M (5 nmol) in 20% TFE, 477.5 μL of 50 mM phosphate buffer.
The samples are analyzed by circular dichroism between 180 and 260 nm.
The control is a sample of Aβ42 peptide without calixarene (1/0). The solutions are prepared for a final volume of 500 μL. The Aβ42 peptide has a molar mass of 4514 g/mol, the para-sulfonato-calix[4]arene has a molar mass of 744 g/mol.

recombinant Tau protein = assay: Capture/precipitation of recombinant Tau protein by agent II C6S, Western blotting of pellet and supernatant; settings: C6S 0.5 mM to 60 mM, 30 minutes at 37° C., centrifugation
Method: It is identical to that described in point 2.1 above.
The assays are carried out as indicated in point 2.2 above, apart from the fact that C6S prepared as indicated patent application WO2004/059322 is used, with a concentration range of from 0.5 mM to 60 mM.

[5] = chondroitin-6-sulfate at a concentration equal to that of Aβ42

T2 sequence (P05067 672-713): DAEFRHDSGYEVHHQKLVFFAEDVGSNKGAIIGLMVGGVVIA
T3 sequence (P10636 1-441 isoform P10636-8): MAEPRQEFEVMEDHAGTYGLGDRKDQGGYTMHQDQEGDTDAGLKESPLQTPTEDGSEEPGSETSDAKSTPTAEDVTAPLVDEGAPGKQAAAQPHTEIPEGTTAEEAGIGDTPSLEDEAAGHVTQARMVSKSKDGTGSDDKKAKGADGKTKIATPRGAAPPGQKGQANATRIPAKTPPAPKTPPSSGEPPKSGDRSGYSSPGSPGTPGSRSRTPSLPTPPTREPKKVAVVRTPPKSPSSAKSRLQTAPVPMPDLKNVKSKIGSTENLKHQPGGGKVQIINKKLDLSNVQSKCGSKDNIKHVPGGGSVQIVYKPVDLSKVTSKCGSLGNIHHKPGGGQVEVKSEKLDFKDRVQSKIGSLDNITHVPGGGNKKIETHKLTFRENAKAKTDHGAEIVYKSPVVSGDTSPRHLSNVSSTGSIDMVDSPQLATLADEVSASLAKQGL

## [H]/N=C(/N)N[C@H]1[C@H](O)[C@@H](O)[C@H](O[C@@H]2O[C@@H](C)[C@](O)(C=O)[C@H]2O[C@@H]2O[C@@H](CO)[C@H](O)[C@@H](O)[C@@H]2NC)[C@@H](N/C(N)=N\[H])[C@@H]1O [streptomycin]
[1]
  completeness of precipitation of the Syn protein (protein found in the supernatant fraction): not complete
  fraction in which the Syn protein is found after treatment with agent I: found in the pellet

## chondroitin-6-sulfate
[2]; [5]
  aperiodic structure (at 200 nm) of Aβ42: greater than 26%
  α-helix (at 210 nm) of Aβ42: more than 37%
  β-sheet of Aβ42 at 220 nm: appears
[2]; chondroitin-6-sulfate five times greater than the Aβ42 peptide
  secondary conformation adopted by Aβ42: essentially aperiodic structure

## NCCNCCNCCN [TET, triethylenetetramine]
[1]
  completeness of precipitation of the Syn protein (protein found in the supernatant fraction): not complete
  fraction in which the Syn protein is found after treatment with agent I: found in the pellet
[3]
  fraction in which the phosphorylated Tau protein is found after treatment with agent I: found in the pellet

## O=S(=O)(O)c1cc2c(O)c(c1)Cc1cc(S(=O)(=O)O)cc(c1O)Cc1cc(S(=O)(=O)O)cc(c1O)Cc1cc(S(=O)(=O)O)cc(c1O)C2 [para-sulfonato-calix[4]arene]
[4]
  aperiodic structure (200 nm) of Aβ42 as share of visible structures: 38%
  α-helix structure (210 nm) of Aβ42 as share of visible structures: more than 37%
  β-sheets (220 nm) of Aβ42 as share of visible structures: more than 26%

## p-sulfonato-3,7-(2-aminoethyloxy)calix-[6]-arene [C6S]
Recombinant Tau protein
  fraction in which the Tau protein and its digested forms are found after treatment with C6S: found in the pellet

From patent US8158441B2, “Method for detecting aggregate-forming circulating protein forms using an agent for aggregating said forms and an agent for capturing formed aggregates” (Biomerieux S.A., priority 2005, dated 2012)
